Measured values as given in patent US8999957B2, “Heterocyclic compounds as ERK inhibitors” (Merck Sharp & Dohme Corp., priority 2010, dated 2015).
Read-outs that look alike come from different tables or passages of the source.

What was measured:
[1] = molecular target: inactive ERK2 (unphosphorylated Mouse ERK2 protein) (Mus musculus (Mouse), UniProt P63085); assay: Coupled ERK2 (cERK) assay, coupled MEK1/ERK2 IMAP assay; type: biochemical; details: 30 μM ATP
Experimental: 14 μl of kinase buffer (10 mM Tris.HCl pH 7.2, 10 mM MgCl2, 0.01% Tween-20, 1 mM DTT) containing 0.4 ng unphosphorylated Mouse ERK2 protein was added to each well of a black 384-well assay plate. […] DMSO concentration during initial incubation is 6.7%. ERK2 activity was determined to be insensitive to DMSO concentrations up to 20%. ERK2 was then activated and it's kinase activity measured by the addition of 10 μl kinase buffer with the following components (final concentration per reaction): 2 ng active (phosphorylated) human MEK1 protein and 4 μM (total) ERK2 IMAP substrate peptides (3.9 μM unlabeled […]-CONH2 and 100 nM […](5-carboxyfluorescein)-CONH2) and 30 μM ATP. DMSO concentration during ERK activation was 4%. After one hour, reactions were terminated by addition of 60 μl IMAP detections beads in binding buffer (Molecular Devices). Binding was allowed to equilibrate for 30 minutes before reading the plate on an LJL Analyst Fluorescence Polarization plate reader. […] Active compounds were reconfirmed in an independent assay.

[2] = molecular target: fully phosphorylated, active Mouse ERK2 protein (Mus musculus (Mouse), UniProt P63085); assay: Active ERK2 (aERK) IMAP assay, condition 1; type: biochemical; details: aERK assay condition 1, 30 μM ATP
Experimental: Active ERK2 (aERK) Assay: (Unless Indicated Otherwise, the Data Provided for aERK was obtained using Condition 1)
Activated ERK2 activity was also determined in the IMAP assay format using the procedure outlined above. […] Reactions proceeded for 30 minutes before termination by addition of 60 μl IMAP detection beads in binding buffer. Plates were read as above after 30 minute binding equilibration.

ERK protein = ERK protein (Mus musculus, UniProt P63085); assay: TdF (Temperature Dependence Fluorescence, thermal shift) assay for ERK; type: binding
Excerpt: Assays: TdF Assay for ERK […] The TdF assay was mainly conducted in the 96-well based CHROMO-4 real time fluorescence plate reader (BioRad). The Sypro Orange (Sigma-Aldrich), environmentally sensitive fluorescence dye, was used to monitor the protein folding-unfolding transition. Protein-ligand binding was gauged by the change (or shift) in the unfolding transition temperature (ΔTm) acquired at protein alone with respect to protein in the presence of ligand of interest. Compound of interest was first prepared in DMSO stock (typical concentration: 10 mM). […] Final percentage of DMSO resided in the sample was 2%. The sample plate was heated from 30° C. to 90° C. with thermal ramping rate of 1° C./min. […] The instrument thermal stability was ±0.2° C. The melting temperatures (Tm) for ERK protein under aforementioned conditions occurred at 61.0±0.2° C. and 64.8±02° C. respectively. Theoretical Basis for TdF-Based Ligand Binding Affinity Constant […] In brief, the binding constant of the ligand at the Tm is expressed as below: [formula] where T0 is the midpoint of unfolding for unliganded protein and Tm is the midpoint of unfolding in presence of ligand. [LTm] is free ligand at Tm. The ΔHu and ΔCpu are the enthalpy of unfolding and heat capacity change of unfolding for the protein respectively. Following algorithm derived by Winsor and coworker, the T0, ΔHu and ΔCpu can be determined separately from nonlinear regression fitting the protein alone melting curve: Where F(T) is the observed fluorescence intensity at any temperature T, Yn and Yu are the predicted fluorescence intensities for fully folded and unfolded protein, respectively; mn and mu are slope correction for changes in Yn and Yu with respect to changes in temperature (analogously replace T0 with Tm in the above equation for liganded protein to yield Tm). […] [formula] where ΔHL (T) is the van't Hoff enthalpy of ligand binding at temperature T and ΔCpL is the heat capacity upon ligand binding. For simplicity, the ΔCpL and ΔHL (T) were set to zero and −7 kcal/mol respectively.

[3] = 3 μM ERK protein, uncertainty estimated ±50%, read-out: Kd TdF

inactive ERK2 (unphosphorylated Mouse ERK2 protein), sequence (P63085 whole entry): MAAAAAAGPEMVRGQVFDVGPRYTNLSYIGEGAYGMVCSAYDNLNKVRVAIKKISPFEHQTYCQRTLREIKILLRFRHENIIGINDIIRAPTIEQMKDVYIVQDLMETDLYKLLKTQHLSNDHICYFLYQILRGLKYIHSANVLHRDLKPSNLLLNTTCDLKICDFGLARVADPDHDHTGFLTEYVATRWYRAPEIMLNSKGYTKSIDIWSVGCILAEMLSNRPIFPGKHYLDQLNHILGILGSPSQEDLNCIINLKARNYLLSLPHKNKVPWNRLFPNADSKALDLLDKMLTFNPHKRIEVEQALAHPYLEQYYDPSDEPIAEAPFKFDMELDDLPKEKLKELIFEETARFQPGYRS
fully phosphorylated, active Mouse ERK2 protein, sequence (P63085 whole entry): as above
ERK protein, sequence (P63085 2-358 limits assumed): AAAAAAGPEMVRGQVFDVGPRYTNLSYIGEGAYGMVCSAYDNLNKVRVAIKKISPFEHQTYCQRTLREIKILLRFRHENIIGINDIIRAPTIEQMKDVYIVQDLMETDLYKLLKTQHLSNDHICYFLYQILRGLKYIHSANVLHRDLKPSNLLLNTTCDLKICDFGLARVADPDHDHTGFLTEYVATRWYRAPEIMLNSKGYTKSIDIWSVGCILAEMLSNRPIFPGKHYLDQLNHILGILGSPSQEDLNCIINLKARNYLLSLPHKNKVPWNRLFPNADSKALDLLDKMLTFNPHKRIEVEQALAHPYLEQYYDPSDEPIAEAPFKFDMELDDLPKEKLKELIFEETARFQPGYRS

| SMILES | IC50 [1] | IC50 [2] | Kd (ERK protein; [3]) | Kd (ERK protein; read-out: Kd TdF, 3 μM ERK protein, uncertainty estimated ±50%) |
| --- | --- | --- | --- | --- |
| CC(c1ccccc1)N1CCC[C@@H](NC(=O)c2ccc3[nH]nc(-c4ccncc4)c3c2)C1 (some centres unmarked) | 763 nM | 475 nM | 804 nM | – |
| CN1CC(NC(=O)c2ccc3[nH]nc(-c4ccncc4)c3c2)CC(c2ccccc2)C1 (centres unmarked) [drawing 158, N-(1-methyl-5-phenylpiperidin-3-yl)-3-(pyridin-4-yl)-1H-indazole-5-carboxamide] | 7.4 nM | 2.6 nM | 1.4 nM | – |
| O=C(N[C@H]1CCCN(Cc2ccccc2F)C1)c1ccc2[nH]nc(-c3ccncc3)c2c1 | 166 nM | 224 nM | 38 nM | – |
| CC(C)Oc1ccc(-c2n[nH]c3ccc(C(=O)N[C@@H]4CCCN(Cc5ccccc5F)C4)cc23)cn1 | 124 nM | 77.9 nM | 2 nM | – |
| O=C(NC1CCCN(Cc2ccccc2)C1)c1ccc2[nH]nc(-c3ccncc3)c2c1 (centres unmarked) | 16.6 nM | 32.5 nM | 0.6 nM | – |
| O=C(N[C@@H]1CCCN(Cc2ccccc2F)C1)c1ccc2[nH]nc(-c3ccc4c(c3)CCO4)c2c1 | 48.6 nM | 52.1 nM | 0.61 nM | – |
| O=C(N[C@@H]1CCCN(Cc2ccccc2)C1)c1ccc2[nH]nc(-c3ccncc3)c2c1 | 2.9 nM | 5.8 nM | 0.3 nM | – |
| O=C(NC1CCCN(Cc2ccccc2F)C1)c1ccc2[nH]nc(-c3ccncc3)c2c1 (centres unmarked) | 14.4 nM | 28.1 nM | 0.3 nM | – |
| O=C(NC1CCCN(Cc2ccccc2)C1)c1ccc2[nH]nc(-c3ccc4c(c3)CCO4)c2c1 (centres unmarked) | 172 nM | 134 nM | 1.4 nM | – |
| Cc1cc(-c2n[nH]c3ccc(C(=O)N[C@@H]4CCCN(Cc5c(F)cccc5F)C4)cc23)ccn1 | – | 29.7 nM | 0.51 nM | – |
| COc1cccc(F)c1CN1CCC[C@@H](NC(=O)c2ccc3[nH]nc(-c4ccc(C(C)=O)cc4)c3c2)C1 | – | 189 nM | 0.9 nM | – |
| CC(=O)n1cc(CN2CCC[C@@H](NC(=O)c3ccc4[nH]nc(-c5ccnc(C)c5)c4c3)C2)c2ccccc21 | – | 154 nM | 1.95 nM | – |
| COc1cccc(F)c1CN1CC(NC(=O)c2ccc3[nH]nc(-c4ccnc(C)c4)c3c2)CC(OC)C1 (centres unmarked) | – | 39.1 nM | 0.42 nM | – |
| COc1cccc(F)c1CN1CCCC(NC(=O)c2ccc3[nH]nc(-c4ccc5c(c4)CCO5)c3c2)C1 (centres unmarked) | – | 33 nM | 0.52 nM | – |
| Cc1cc(-c2n[nH]c3ccc(C(=O)N[C@@H]4CCCN(CCc5ccccc5C(F)(F)F)C4)cc23)ccn1 | – | 86.9 nM | – | 2.2 nM |
| COc1cccc(F)c1CN1CCC[C@@H](NC(=O)c2ccc3[nH]nc(-c4ccc5cn[nH]c5c4)c3c2)C1 | – | 163 nM | 0.27 nM | – |
| Cc1cc(-c2n[nH]c3ccc(C(=O)N[C@@H]4CCCN(Cc5ccccc5F)C4)cc23)ccn1 | – | 10.7 nM | 0.5 nM | – |
| Cc1cc(-c2n[nH]c3ccc(C(=O)N[C@@H]4CCCN(Cc5cc(F)c(Cl)cc5Cl)C4)cc23)ccn1 | – | 660 nM | 9.76 nM | – |
| COc1cccc(F)c1CN1CCC[C@@H](NC(=O)c2ccc3[nH]nc(-c4ccc5occc5c4)c3c2)C1 | – | 495 nM | 0.21 nM | – |
| COc1cccc(F)c1CN1C[C@H](C)C[C@@H](NC(=O)c2ccc3[nH]nc(-c4ccc5nn(C)cc5c4)c3c2)C1 | – | 217 nM | 0.39 nM | – |

| SMILES | IC50 [1] | IC50 [2] | Kd (ERK protein; [3]) | Kd (ERK protein; read-out: Kd TdF, 3 μM ERK protein, uncertainty estimated ±50%) |
| --- | --- | --- | --- | --- |
| [2H]C(c1c(F)cccc1OC)N1CCC[C@@H](NC(=O)c2ccc3[nH]nc(-c4ccnc(C)c4)c3c2)C1 (some centres unmarked) | – | 13.3 nM | 0.35 nM | – |
| COc1cccc(F)c1CN1CCC[C@@H](NC(=O)c2ccc3[nH]nc(-c4ccc(S(C)(=O)=O)cc4)c3c2)C1 | – | 195 nM | 1.37 nM | – |
| COc1ccccc1CN1CCC[C@@H](NC(=O)c2ccc3[nH]nc(-c4ccc(O)c(NC(C)=O)c4)c3c2)C1 | – | 254 nM | 1.29 nM | – |
| CC(=O)Nc1cc(-c2n[nH]c3ccc(C(=O)N[C@@H]4CCCN(Cc5c(F)cccc5F)C4)cc23)ccc1O | – | 224 nM | 1.29 nM | – |
| Cc1cc(-c2n[nH]c3ccc(C(=O)N[C@@H]4CCCN(Cc5ccccc5Cl)C4)cc23)ccn1 | – | 28.1 nM | 0.2 nM | – |
| COc1cccc(F)c1CN1CCC[C@@H](NC(=O)c2ccc3[nH]nc(-c4ccc5oc(C)nc5c4)c3c2)C1 | – | 45.6 nM | 0.6 nM | – |
| COc1cccc(F)c1CN1CCC[C@@H](NC(=O)c2ccc3[nH]nc(-c4ccc(S(=O)(=O)N(C)C)cc4)c3c2)C1 | – | 359 nM | 2.63 nM | – |
| COc1cccc(F)c1CN1CCC[C@@H](NC(=O)c2ccc3[nH]nc(-c4ccc(O)c(NC(C)=O)c4)c3c2)C1 | – | 64.9 nM | 0.66 nM | – |
| Cc1cc(-c2n[nH]c3ccc(C(=O)N[C@@H]4CCCN(Cc5cc6ccccc6n5C)C4)cc23)ccn1 | – | 41.7 nM | 0.21 nM | – |
| Cn1cc(CN2CCC[C@@H](NC(=O)c3ccc4[nH]nc(-c5ccc6c(c5)CCO6)c4c3)C2)c2ccccc21 | – | 158 nM | 11 nM | – |
| Cn1cc2cc(-c3n[nH]c4ccc(C(=O)NC5C[C@@H]6C[C@H]5N(Cc5c(F)cccc5F)C6)cc34)ccc2n1 (some centres unmarked) | – | 881 nM | 3.29 nM | – |
| CC1CC(NC(=O)c2ccc3[nH]nc(-c4ccncc4)c3c2)CN(Cc2ccccc2F)C1 (centres unmarked) | – | 16.4 nM | 0.052 nM | – |
| Cc1cc(-c2n[nH]c3ccc(C(=O)N[C@@H]4CCCN(Cc5cc6ccccc6o5)C4)cc23)ccn1 | – | 15.1 nM | 1.43 nM | – |
| COc1cccc(F)c1CN1C[C@@H](NC(=O)c2ccc3[nH]nc(-c4ccc5nccn5c4)c3c2)CCC1=O | – | 663 nM | 17.7 nM | – |
| Cc1cc(-c2n[nH]c3ccc(C(=O)N[C@@H]4CCCN(Cc5cn(C)c6ccccc56)C4)cc23)ccn1 | – | 21.5 nM | 1.38 nM | – |
| COc1ccsc1CN1CCC[C@@H](NC(=O)c2ccc3[nH]nc(-c4ccnc(C)c4)c3c2)C1 | – | 137 nM | 0.97 nM | – |
| COc1cccc(F)c1CN1CCC[C@@H](NC(=O)c2ccc3[nH]nc(-c4cccc(C(C)=O)c4)c3c2)C1 | – | 609 nM | 2.01 nM | – |
| [2H]C1(N2CCC[C@@H](NC(=O)c3ccc4[nH]nc(-c5ccnc(C)c5)c4c3)C2)CCc2ccccc21 (some centres unmarked) | – | 62.5 nM | 0.34 nM | – |
| O=C(N[C@@H]1CCCN(Cc2ccccn2)C1)c1ccc2[nH]nc(-c3ccc4c(c3)CCO4)c2c1 | – | 591 nM | 9.2 nM | – |
| CN(C)c1ccc(CN2CCC[C@@H](NC(=O)c3ccc4[nH]nc(-c5ccc6c(c5)CCO6)c4c3)C2)cc1 | – | 1000 nM | 1000 nM | – |
